The test system of the assay is MV-4-11 cells. In words: Gene expression microarray analysis (Affymetrix PrimeView) and GSEA. It is filed as cell-based, human. Details: RFU PODN (11730768_x_at) / Fold change /veh PODN (11730768_x_at) / RFU LINC00158 (11744669_a_at) / Fold change /veh LINC00158 (11744669_a_at) / RFU DUSP10 (11751237_a_at) / Fold change /veh DUSP10 (11751237_a_at) / RFU ID3 (11757404_x_at) / Fold change /veh ID3 (11757404_x_at) / RFU PLEKHG5 (11737974_s_at) / Fold change /veh PLEKHG5 (11737974_s_at) / RFU LRRC4B (11730491_at) / Fold change /veh LRRC4B (11730491_at) / RFU GIMAP4 (11747438_a_at) / Fold change /veh GIMAP4 (11747438_a_at) / RFU KRT8 (11758183_x_at) / Fold change /veh KRT8 (11758183_x_at) / RFU CNN1 (11734310_a_at) / Fold change /veh CNN1 (11734310_a_at) / RFU VPS37D (11726825_at) / Fold change /veh VPS37D (11726825_at) / RFU C10orf10 (11716522_x_at) / Fold change /veh C10orf10 (11716522_x_at) / RFU KIR2DL2 /// KIR2DL4 /// KIR2DL5A /// KIR2DL5B /// KIR2DS1 /// KIR2DS2 /// KIR2DS3 /// KIR2DS4 /// KIR3DL3 /// KIR3DL3 /// KIR3DS1 (11738374_at) / Fold change /veh KIR2DL2 /// KIR2DL4 /// KIR2DL5A /// KIR2DL5B /// KIR2DS1 /// KIR2DS2 /// KIR2DS3 /// KIR2DS4 /// KIR3DL3 /// KIR3DL3 /// KIR3DS1 (11738374_at) / RFU C1QL1 (11718748_at) / Fold change /veh C1QL1 (11718748_at) / RFU TMPRSS4 (11747572_a_at) / Fold change /veh TMPRSS4 (11747572_a_at) / RFU HAMP (11756126_x_at) / Fold change /veh HAMP (11756126_x_at) / RFU RNFT2 (11725882_a_at) / Fold change /veh RNFT2 (11725882_a_at) / RFU NR4A2 (11747474_a_at) / Fold change /veh NR4A2 (11747474_a_at) / RFU ABCC12 (11746883_a_at) / Fold change /veh ABCC12 (11746883_a_at) / RFU TMEM136 (11760407_x_at) / Fold change /veh TMEM136 (11760407_x_at) / RFU CLDN22 /// WWC2 (11732394_at) / Fold change /veh CLDN22 /// WWC2 (11732394_at) / RFU HLA-DPB1 (11760878_x_at) / Fold change /veh HLA-DPB1 (11760878_x_at) / RFU SPINT1 (11716480_a_at) / Fold change /veh SPINT1 (11716480_a_at) / RFU GAP43 (11754022_s_at) / Fold change /veh GAP43 (11754022_s_at) / RFU A4GNT (11735810_at) / Fold change /veh A4GNT (11735810_at) / RFU PRB3 (11715151_x_at) / Fold change /veh PRB3 (11715151_x_at) / RFU TUBB4B (11761932_at) / Fold change /veh TUBB4B (11761932_at) / RFU CAPN14 (11732068_a_at) / Fold change /veh CAPN14 (11732068_a_at) / RFU TMCC2 (11721928_a_at) / Fold change /veh TMCC2 (11721928_a_at) / RFU IRGQ (11745062_a_at) / Fold change /veh IRGQ (11745062_a_at) / RFU FAM174B (11720279_a_at) / Fold change /veh FAM174B (11720279_a_at) / RFU TMPRSS4 (11748680_a_at) / Fold change /veh TMPRSS4 (11748680_a_at) / RFU FAM212B (11763350_a_at) / Fold change /veh FAM212B (11763350_a_at) / RFU PLEKHG5 (11743358_a_at) / Fold change /veh PLEKHG5 (11743358_a_at) / RFU ZSCAN30 (11745921_a_at) / Fold change /veh ZSCAN30 (11745921_a_at) / RFU CMKLR1 (11741424_a_at) / Fold change /veh CMKLR1 (11741424_a_at) / RFU LOC101060620 /// MAPK8IP1 (11723275_at) / Fold change /veh LOC101060620 /// MAPK8IP1 (11723275_at) / RFU SPTSSB (11747773_x_at) / Fold change /veh SPTSSB (11747773_x_at) / RFU PRSS12 (11739890_at) / Fold change /veh PRSS12 (11739890_at) / RFU BIN1 (11741810_x_at) / Fold change /veh BIN1 (11741810_x_at) / RFU WNT11 (11732464_a_at) / Fold change /veh WNT11 (11732464_a_at) / RFU C10orf10 (11716521_a_at) / Fold change /veh C10orf10 (11716521_a_at) / RFU C5orf56 (11738089_at) / Fold change /veh C5orf56 (11738089_at) / RFU CYB561 (11721691_x_at) / Fold change /veh CYB561 (11721691_x_at) / RFU ANKRD19P (11752326_a_at) / Fold change /veh ANKRD19P (11752326_a_at) / RFU OR2T12 /// OR2T33 /// OR2T8 (11738714_s_at) / Fold change /veh OR2T12 /// OR2T33 /// OR2T8 (11738714_s_at) / RFU VCAN (11748164_a_at) / Fold change /veh VCAN (11748164_a_at) / RFU JSRP1 (11732532_at) / Fold change /veh JSRP1 (11732532_at) / RFU KRTAP10-11 (11738290_x_at) / Fold change /veh KRTAP10-11 (11738290_x_at) / RFU MYO3A (11730013_a_at) / Fold change /veh MYO3A (11730013_a_at) / RFU EBF3 (11725865_a_at) / Fold change /veh EBF3 (11725865_a_at) / RFU CAMK2N1 (11719241_x_at) / Fold change /veh CAMK2N1 (11719241_x_at) / RFU C5orf56 (11738088_a_at) / Fold change /veh C5orf56 (11738088_a_at) / RFU OLFML3 (11715873_a_at) / Fold change /veh OLFML3 (11715873_a_at) / RFU LOC100653217 /// NTM (11731650_a_at) / Fold change /veh LOC100653217 /// NTM (11731650_a_at) / RFU MAPK11 (11762145_a_at) / Fold change /veh MAPK11 (11762145_a_at) / RFU FIZ1 (11724087_x_at) / Fold change /veh FIZ1 (11724087_x_at) / RFU OASL (11726364_x_at) / Fold change /veh OASL (11726364_x_at) / RFU SOX15 (11748057_x_at) / Fold change /veh SOX15 (11748057_x_at) / RFU CD79A (11719716_a_at) / Fold change /veh CD79A (11719716_a_at) / RFU HIST1H1D (11736915_at) / Fold change /veh HIST1H1D (11736915_at) / RFU CASKIN2 (11723855_a_at) / Fold change /veh CASKIN2 (11723855_a_at) / RFU LOC730098 (11760151_x_at) / Fold change /veh LOC730098 (11760151_x_at) / RFU OR4N2 (11742367_at) / Fold change /veh OR4N2 (11742367_at) / RFU PRRT2 (11749266_a_at) / Fold change /veh PRRT2 (11749266_a_at) / RFU SNX32 (11753110_a_at) / Fold change /veh SNX32 (11753110_a_at) / RFU CDHR5 (11726645_a_at) / Fold change /veh CDHR5 (11726645_a_at) / RFU RCAN1 (11760418_a_at) / Fold change /veh RCAN1 (11760418_a_at) / RFU FAM167A (11723789_a_at) / Fold change /veh FAM167A (11723789_a_at) / RFU FAM26E (11764081_at) / Fold change /veh FAM26E (11764081_at) / RFU ISYNA1 (11749810_s_at) / Fold change /veh ISYNA1 (11749810_s_at) / RFU ACY1 (11761880_at) / Fold change /veh ACY1 (11761880_at) / RFU 11764098_at / Fold change /veh 11764098_at / RFU SAMD14 (11745864_x_at) / Fold change /veh SAMD14 (11745864_x_at) / RFU NPB (11741838_a_at) / Fold change /veh NPB (11741838_a_at) / RFU TMPRSS6 (11731388_a_at) / Fold change /veh TMPRSS6 (11731388_a_at) / RFU KRTAP10-2 (11738614_at) / Fold change /veh KRTAP10-2 (11738614_at) / RFU ARHGAP8 /// PRR5-ARHGAP8 (11727945_x_at) / Fold change /veh ARHGAP8 /// PRR5-ARHGAP8 (11727945_x_at) / RFU KRTAP5-7 /// NADSYN1 (11734609_at) / Fold change /veh KRTAP5-7 /// NADSYN1 (11734609_at) / RFU RASL12 (11751679_a_at) / Fold change /veh RASL12 (11751679_a_at) / RFU CDKN2B (11736163_a_at) / Fold change /veh CDKN2B (11736163_a_at) / RFU PRF1 (11729649_at) / Fold change /veh PRF1 (11729649_at) / RFU, ZNF638 /// ZNF638-IT1 / Fold change vs veh, ZNF638 /// ZNF638-IT1 / RFU, PANK3 / Fold change vs veh, PANK3 / RFU, SH3YL1 / Fold change vs veh, SH3YL1 / RFU, ZEB2 / Fold change vs veh, ZEB2 / RFU, NRIP1 / Fold change vs veh, NRIP1 / RFU, PTTG1IP / Fold change vs veh, PTTG1IP / RFU, CAPN2 / Fold change vs veh, CAPN2 / RFU, MED14 / Fold change vs veh, MED14 / RFU, SNORA58 / Fold change vs veh, SNORA58 / RFU, C1orf63 / Fold change vs veh, C1orf63 / RFU, LRRFIP1 / Fold change vs veh, LRRFIP1 / RFU, NDUFAF7 / Fold change vs veh, NDUFAF7 / RFU, SLC12A2 / Fold change vs veh, SLC12A2 / RFU, IBTK / Fold change vs veh, IBTK / RFU, ESF1 / Fold change vs veh, ESF1 / Fold change vs veh, TMEM50B / RFU, TAOK1 / Fold change vs veh, TAOK1 / RFU, ACBD3 / Fold change vs veh, ACBD3 / RFU, TMA16 / Fold change vs veh, TMA16 / RFU, RWDD3 / Fold change vs veh, RWDD3 / RFU, BCAT1 / Fold change vs veh, BCAT1 / RFU, EDEM3 / Fold change vs veh, EDEM3 / RFU, TMEM33 / Fold change vs veh, TMEM33 / RFU, WDR75 / Fold change vs veh, WDR75 / RFU, AHCTF1 / Fold change vs veh, AHCTF1 / RFU, TFRC / Fold change vs veh, TFRC / RFU, ZDHHC17 / Fold change vs veh, ZDHHC17 / RFU, NOM1 / Fold change vs veh, NOM1 / RFU, ARL8B / Fold change vs veh, ARL8B / RFU, ZBTB11 / Fold change vs veh, ZBTB11 / RFU, TAMM41 / Fold change vs veh, TAMM41 / RFU, KIAA1704 /// LOC100996395 / Fold change vs veh, KIAA1704 /// LOC100996395 / RFU, ING1 / Fold change vs veh, ING1 / RFU, TRMT61B / Fold change vs veh, TRMT61B / RFU, FUBP3 / Fold change vs veh, FUBP3 / RFU, TP53 / Fold change vs veh, TP53 / RFU, TNKS2 / Fold change vs veh, TNKS2 / RFU, ZFP14 / Fold change vs veh, ZFP14 / RFU, ACTR2 / Fold change vs veh, ACTR2 / RFU, PPP3R1 / Fold change vs veh, PPP3R1 / RFU, PIK3R1 / Fold change vs veh, PIK3R1 / RFU, HNRNPA1 / Fold change vs veh, HNRNPA1 / RFU, RNF170 / Fold change vs veh, RNF170 / RFU, ZNF28 / Fold change vs veh, ZNF28 / RFU, RNGTT / Fold change vs veh, RNGTT / RFU, OGT / Fold change vs veh, OGT / RFU, BRD1 / Fold change vs veh, BRD1 / RFU, MARS / Fold change vs veh, MARS / RFU, ZNF655 / Fold change vs veh, ZNF655 / RFU, FAHD1 / Fold change vs veh, FAHD1 / RFU, BDP1 / Fold change vs veh, BDP1 / RFU, LRRCC1 / Fold change vs veh, LRRCC1 / RFU, ARID1A / Fold change vs veh, ARID1A / RFU, ZNF146 / Fold change vs veh, ZNF146 / RFU, ZNF330 / Fold change vs veh, ZNF330 / RFU, GPN3 / Fold change vs veh, GPN3 / RFU, C9orf123 / Fold change vs veh, C9orf123 / RFU, N4BP2L2 / Fold change vs veh, N4BP2L2 / RFU, ARFIP1 / Fold change vs veh, ARFIP1 / RFU, FAM179B / Fold change vs veh, FAM179B / RFU, BCL10 / Fold change vs veh, BCL10 / RFU, UHRF1BP1L / Fold change vs veh, UHRF1BP1L / RFU, BET1 / Fold change vs veh, BET1 / RFU, CNOT2 / Fold change vs veh, CNOT2 / RFU, ZNF268 / Fold change vs veh, ZNF268 / Fold change vs veh, ZNF507 / RFU, DGCR2 / Fold change vs veh, DGCR2 / RFU, WDSUB1 / Fold change vs veh, WDSUB1 / Fold change vs veh, HSP90B1 /// MIR3652 / RFU, ADSS / Fold change vs veh, ADSS / RFU, GK / Fold change vs veh, GK / RFU, ZNF148 / Fold change vs veh, ZNF148 / RFU, TAF9 / Fold change vs veh, TAF9 / RFU, SLC1A5 / Fold change vs veh, SLC1A5 / RFU, SLMO2 / Fold change vs veh, SLMO2 / RFU, ABCC4 / Fold change vs veh, ABCC4 / RFU, LOC101060439 /// RAP1B / Fold change vs veh, LOC101060439 /// RAP1B / RFU, RFX7 / Fold change vs veh, RFX7 / RFU, GTPBP10 / Fold change vs veh, GTPBP10 / RFU, CNEP1R1 / Fold change vs veh, CNEP1R1 / RFU, BIVM-ERCC5 /// ERCC5 / Fold change vs veh, BIVM-ERCC5 /// ERCC5 / RFU, ILF3 / Fold change vs veh, ILF3 / RFU 11762660_at / Fold change /veh 11762660_at / RFU VCAN (11757783_s_at) / Fold change /veh VCAN (11757783_s_at) / RFU DDX43 (11728927_at) / Fold change /veh DDX43 (11728927_at) / RFU KRT8 (11758188_x_at) / Fold change /veh KRT8 (11758188_x_at) / RFU NKD1 (11759106_at) / Fold change /veh NKD1 (11759106_at) / RFU SRD5A1 (11742802_a_at) / Fold change /veh SRD5A1 (11742802_a_at) / RFU TPSAB1 /// TPSB2 (11721975_s_at) / Fold change /veh TPSAB1 /// TPSB2 (11721975_s_at) / RFU GSTM3 (11746129_a_at) / Fold change /veh GSTM3 (11746129_a_at) / RFU IL23R (11737362_x_at) / Fold change /veh IL23R (11737362_x_at) / RFU TMEM51 (11727254_a_at) / Fold change /veh TMEM51 (11727254_a_at) / RFU PIWIL2 (11732686_x_at) / Fold change /veh PIWIL2 (11732686_x_at) / RFU ORM1 (11744905_x_at) / Fold change /veh ORM1 (11744905_x_at) / RFU CCDC152 (11743942_at) / Fold change /veh CCDC152 (11743942_at) / RFU ECM1 (11717891_a_at) / Fold change /veh ECM1 (11717891_a_at) / RFU IL23R (11748794_a_at) / Fold change /veh IL23R (11748794_a_at) / RFU TNFAIP8L3 (11732012_x_at) / Fold change /veh TNFAIP8L3 (11732012_x_at) / RFU MBOAT4 (11741988_at) / Fold change /veh MBOAT4 (11741988_at) / RFU 11764193_at / Fold change /veh 11764193_at / RFU TMEM53 (11763286_at) / Fold change /veh TMEM53 (11763286_at) / RFU MAGEB2 (11727129_at) / Fold change /veh MAGEB2 (11727129_at) / RFU TMEM200A (11744735_a_at) / Fold change /veh TMEM200A (11744735_a_at) / RFU CCDC152 (11751479_a_at) / Fold change /veh CCDC152 (11751479_a_at) / RFU FAM211A (11726209_a_at) / Fold change /veh FAM211A (11726209_a_at) / RFU RGS16 (11746705_a_at) / Fold change /veh RGS16 (11746705_a_at) / RFU VCAN (11755009_s_at) / Fold change /veh VCAN (11755009_s_at) / RFU RHOB (11743442_s_at) / Fold change /veh RHOB (11743442_s_at) / RFU RGS16 (11720943_a_at) / Fold change /veh RGS16 (11720943_a_at) / RFU RGS16 (11720944_at) / Fold change /veh RGS16 (11720944_at) / RFU, VPS4B / Fold change vs veh, VPS4B / RFU, CREB1 / Fold change vs veh, CREB1 / RFU, DNAJC13 / Fold change vs veh, DNAJC13 / RFU, GNAQ / Fold change vs veh, GNAQ / RFU, CDK5R1 / Fold change vs veh, CDK5R1 / RFU, ZRANB3 / Fold change vs veh, ZRANB3 / RFU, CUL4A / Fold change vs veh, CUL4A / RFU, CCNY / Fold change vs veh, CCNY / RFU, UFL1 / Fold change vs veh, UFL1 / RFU, COG3 / Fold change vs veh, COG3 / RFU, DIAPH2 / Fold change vs veh, DIAPH2 / RFU, SKA2 / Fold change vs veh, SKA2 / RFU, AFF3 / Fold change vs veh, AFF3 / RFU, LMF1 / Fold change vs veh, LMF1 / RFU, IPO11 / Fold change vs veh, IPO11 / RFU, DFFB / Fold change vs veh, DFFB / RFU, FOXP1 / Fold change vs veh, FOXP1 / RFU, CARD8 / Fold change vs veh, CARD8 / RFU, STRN3 / Fold change vs veh, STRN3 / RFU, ADK / Fold change vs veh, ADK / RFU, RASSF2 / Fold change vs veh, RASSF2 / RFU, WIPF1 / Fold change vs veh, WIPF1 / RFU, LARP1B / Fold change vs veh, LARP1B / RFU, RASA1 / Fold change vs veh, RASA1 / RFU, RB1 / Fold change vs veh, RB1 / RFU, PPFIA1 / Fold change vs veh, PPFIA1 / RFU, MAT2A / Fold change vs veh, MAT2A / RFU, CCT5 / Fold change vs veh, CCT5 / RFU, WDR92 / Fold change vs veh, WDR92 / RFU, CUX1 / Fold change vs veh, CUX1 / RFU, TTC7A / Fold change vs veh, TTC7A / RFU, TMEM135 / Fold change vs veh, TMEM135 / RFU, DEPTOR / Fold change vs veh, DEPTOR / RFU, CPM / Fold change vs veh, CPM / RFU, DNAJB6 / Fold change vs veh, DNAJB6 / RFU, CACNA2D3 / Fold change vs veh, CACNA2D3 / RFU, DTX4 / Fold change vs veh, DTX4 / RFU, TFCP2 / Fold change vs veh, TFCP2 / RFU, GMCL1 /// GMCL1P1 / Fold change vs veh, GMCL1 /// GMCL1P1 / RFU, AEBP2 / Fold change vs veh, AEBP2 / RFU, SNHG1 /// SNORD22 /// SNORD25 /// SNORD26 /// SNORD27 /// SNORD28 /// SNORD29 /// SNORD31 / Fold change vs veh, SNHG1 /// SNORD22 /// SNORD25 /// SNORD26 /// SNORD27 /// SNORD28 /// SNORD29 /// SNORD31 / Fold change (Aza/veh), C12orf56 (ProbeSet 11735607_a_at) / Fold change (ACY-1035/veh), C12orf56 (ProbeSet 11735607_a_at) / Fold change (Aza/veh), FGFR1OP (ProbeSet 11751329_s_at) / Fold change (ACY-1035/veh), FGFR1OP (ProbeSet 11751329_s_at) / Fold change (Aza/veh), VPS36 (ProbeSet 11739960_a_at) / Fold change (ACY-1035/veh), VPS36 (ProbeSet 11739960_a_at) / RFU SYPL1 (11715823_x_at) / Fold change /veh SYPL1 (11715823_x_at) / RFU IGFBP7 (11715501_s_at) / Fold change /veh IGFBP7 (11715501_s_at) / RFU REEP3 (11722064_at) / Fold change /veh REEP3 (11722064_at) / RFU IGLL1 (11728026_x_at) / Fold change /veh IGLL1 (11728026_x_at): dose or concentration left out as unconfirmed. Particulars: MV-4-11 cells, 48 hours.

This is an account of results in PMC5218480 (PLoS ONE, 2017).

For the compound `Nc1ncn([C@@H]2O[C@H](CO)[C@@H](O)[C@H]2O)c(=O)n1` [azacitidine], the “RFU CMKLR1 (11741424_a_at)” value is recorded as 16.54 RFU.
